Test results from US9187472B2 (AbbVie Inc., priority 2012, dated 2015).

How the values were obtained:
[1] = biological target: NAMPT (Homo sapiens, UniProt P43490); assay: TR-FRET Binding Assay of NAMPT with PRPP; settings: with 200 μM PRPP and 2.5 mM ATP; 2 nM NAMPT, 2 nM probe, 16 hours equilibration
Method in brief: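 Compounds were mixed with 2 nM His-tagged NAMPT, 2 nM probe, 1 nM terbium anti-His antibody, 200 μM PRPP and 2.5 mM ATP in assay buffer with 2% DMSO, then left 16 hours to permit possible enzymatic processing of compounds before time-resolved FRET was measured.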

[2] = test system: PC3 cells; assay: NAMPT Cell Proliferation Assay; assay type: cell-based; settings: Homo sapiens, PC-3, 120 h, 5 days incubation, cell viability by Cell Titer Glo
Method in brief: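 Seed PC3 at 500 cells/well (RPMI, 10% HI-FBS), attach overnight; add compound, 10-fold series 10 μM → 1×10^−5 μM; incubate 5 d, 37° C/5% CO2; luminescent viability readout; fit % inhibition sigmoidally for IC50.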

[3] = biological target: NAMPT (human, recombinant, C-terminally His-tagged) (Homo sapiens, UniProt P43490); assay: Time-Resolved Fluorescence Resonance Energy Transfer (TR-FRET) Binding Assay of NAMPT; settings: without substrates; 6.8 nM NAMPT, 200 nM probe, 3 hours equilibration
Method in brief: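 Compounds, diluted in half-log steps, are mixed with enzyme (6.8 nM), fluorescent probe (200 nM) and Tb-anti-His antibody (1 nM) in pH 7.5 HEPES buffer containing 10 mM MgCl2 and 1 mM DTT. Plates equilibrate 3 h at room temperature; normalized FRET ratios are fitted by four-parameter logistic regression for IC50.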

Chain of NAMPT (human, recombinant, C-terminally His-tagged) (P43490 whole entry): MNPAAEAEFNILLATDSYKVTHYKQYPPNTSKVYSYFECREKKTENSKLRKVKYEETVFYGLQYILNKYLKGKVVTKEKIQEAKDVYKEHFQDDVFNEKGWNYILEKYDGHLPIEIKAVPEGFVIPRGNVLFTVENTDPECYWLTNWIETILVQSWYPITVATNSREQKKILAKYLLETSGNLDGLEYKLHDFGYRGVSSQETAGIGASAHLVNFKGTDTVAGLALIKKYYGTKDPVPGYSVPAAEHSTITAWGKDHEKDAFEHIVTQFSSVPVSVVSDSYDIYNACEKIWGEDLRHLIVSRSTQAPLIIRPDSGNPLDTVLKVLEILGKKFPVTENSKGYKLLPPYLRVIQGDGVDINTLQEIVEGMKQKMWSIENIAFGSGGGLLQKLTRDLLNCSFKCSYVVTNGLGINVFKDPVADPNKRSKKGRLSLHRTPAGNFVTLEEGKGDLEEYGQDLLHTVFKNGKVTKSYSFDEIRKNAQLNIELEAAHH
Chain of NAMPT (P43490 whole entry): as above

| Compound | IC50 [1] | IC50 [2] | IC50 [3] |
| --- | --- | --- | --- |
| CC(C)OCC1CN(c2ncc(C(=O)NCc3ccn4ccnc4c3)s2)C(=O)O1 (stereo not drawn) [Example 249, N-(imidazo[1,2-a]pyridin-7-ylmethyl)-2-{2-oxo-5-[(propan-2-yloxy)methyl]-1,3-oxazolidin-3-yl}-1,3-thiazole-5-carboxamide] | 0.72 nM | 66.5 nM | 817 nM |
| CC(C)[C@@H]1COC(=O)N1c1ccc(C(=O)NCc2ccn3ccnc3c2)s1 [Example 250, N-(imidazo[1,2-a]pyridin-7-ylmethyl)-5-[(4R)-2-oxo-4-(propan-2-yl)-1,3-oxazolidin-3-yl]thiophene-2-carboxamide] | 0.23 nM | 0.675 nM | 20.5 nM |
| O=C(NCc1ccn2ccnc2c1)c1cnc(N2CC(CO)OC2=O)s1 (stereo not drawn) [Example 251, 2-[5-(hydroxymethyl)-2-oxo-1,3-oxazolidin-3-yl]-N-(imidazo[1,2-a]pyridin-7-ylmethyl)-1,3-thiazole-5-carboxamide] | 0.63 nM | 1840 nM | 2200 nM |
| O=C(NCc1ccn2ccnc2c1)c1ccc(-c2cnn(CC3CCOC3)c2)s1 (stereo not drawn) [Example 252, N-(imidazo[1,2-a]pyridin-7-ylmethyl)-5-[1-(tetrahydrofuran-3-ylmethyl)-1H-pyrazol-4-yl]thiophene-2-carboxamide] | 0.274 nM | 1.91 nM | 37.4 nM |
| O=C(NCc1ccn2ccnc2c1)c1ccc(-c2cnn(CC3CCCOC3)c2)s1 (stereo not drawn) [Example 253, N-(imidazo[1,2-a]pyridin-7-ylmethyl)-5-[1-(tetrahydro-2H-pyran-3-ylmethyl)-1H-pyrazol-4-yl]thiophene-2-carboxamide] | 0.229 nM | 0.702 nM | 14.4 nM |
| CC1(Cn2cc(-c3ccc(C(=O)NCc4ccn5ccnc5c4)s3)cn2)COC1 [Example 254, N-(imidazo[1,2-a]pyridin-7-ylmethyl)-5-{1-[(3-methyloxetan-3-yl)methyl]-1H-pyrazol-4-yl}thiophene-2-carboxamide] | 0.306 nM | 0.938 nM | 31.3 nM |
| CC(C)OC[C@@H]1CN(c2ncc(C(=O)NCc3ccn4ccnc4c3)s2)C(=O)O1 [Example 255, N-(imidazo[1,2-a]pyridin-7-ylmethyl)-2-{(5S)-2-oxo-5-[(propan-2-yloxy)methyl]-1,3-oxazolidin-3-yl}-1,3-thiazole-5-carboxamide] | 2.22 nM | 4290 nM | 8190 nM |
| CC(C)OC[C@H]1CN(c2ncc(C(=O)NCc3ccn4ccnc4c3)s2)C(=O)O1 [Example 256, N-(imidazo[1,2-a]pyridin-7-ylmethyl)-2-{(5R)-2-oxo-5-[(propan-2-yloxy)methyl]-1,3-oxazolidin-3-yl}-1,3-thiazole-5-carboxamide] | 0.266 nM | 9.84 nM | 126 nM |
| COCC(=O)N1CCC(c2ccc(C(=O)NCc3ccn4ccnc4c3)s2)CC1 [Example 257, N-(imidazo[1,2-a]pyridin-7-ylmethyl)-5-[1-(methoxyacetyl)piperidin-4-yl]thiophene-2-carboxamide] | 0.344 nM | 15.2 nM | 101 nM |
| CC(=O)N1CCC(c2ccc(C(=O)NCc3ccn4ccnc4c3)s2)CC1 [Example 258, 5-(1-acetylpiperidin-4-yl)-N-(imidazo[1,2-a]pyridin-7-ylmethyl)thiophene-2-carboxamide] | 0.558 nM | 32.5 nM | 113 nM |
| CC(C)C(=O)N1CCC(c2ccc(C(=O)NCc3ccn4ccnc4c3)s2)CC1 [Example 259, N-(imidazo[1,2-a]pyridin-7-ylmethyl)-5-[1-(2-methylpropanoyl)piperidin-4-yl]thiophene-2-carboxamide] | 0.169 nM | 2.54 nM | 26.6 nM |
| O=C(NCc1ccn2ccnc2c1)c1ccc(C2CCN(C(=O)C3CC3)CC2)s1 [Example 260, 5-[1-(cyclopropylcarbonyl)piperidin-4-yl]-N-(imidazo[1,2-a]pyridin-7-ylmethyl)thiophene-2-carboxamide] | 0.351 nM | 8.06 nM | 46.5 nM |
| O=C(NCc1ccn2ccnc2c1)c1ccc(C2CCN(C(=O)C3CCOC3)CC2)s1 (stereo not drawn) [Example 261, N-(imidazo[1,2-a]pyridin-7-ylmethyl)-5-[1-(tetrahydrofuran-3-ylcarbonyl)piperidin-4-yl]thiophene-2-carboxamide] | 0.231 nM | 5.1 nM | 62.7 nM |
| O=C(NCc1ccn2ccnc2c1)c1ccc(C2CCN(C(=O)CC3CCOCC3)CC2)s1 [Example 262, N-(imidazo[1,2-a]pyridin-7-ylmethyl)-5-[1-(tetrahydro-2H-pyran-4-ylacetyl)piperidin-4-yl]thiophene-2-carboxamide] | 0.221 nM | 1.87 nM | 3.67 nM |
| CC(C)CC(=O)N1CCC(c2ccc(C(=O)NCc3ccn4ccnc4c3)s2)CC1 [Example 263, N-(imidazo[1,2-a]pyridin-7-ylmethyl)-5-[1-(3-methylbutanoyl)piperidin-4-yl]thiophene-2-carboxamide] | 0.247 nM | 2.43 nM | 48.6 nM |
| O=C(NCc1ccn2ccnc2c1)c1ccc(C2CCN(C(=O)c3ccno3)CC2)s1 [Example 264, N-(imidazo[1,2-a]pyridin-7-ylmethyl)-5-[1-(1,2-oxazol-5-ylcarbonyl)piperidin-4-yl]thiophene-2-carboxamide] | 0.412 nM | 6.69 nM | 40.4 nM |
| O=C(NCc1ccn2ccnc2c1)c1ccc(-c2cnn(CC3CCOCC3)c2)s1 [Example 265, N-(imidazo[1,2-a]pyridin-7-ylmethyl)-5-[1-(tetrahydro-2H-pyran-4-ylmethyl)-1H-pyrazol-4-yl]thiophene-2-carboxamide] | 0.266 nM | 1.59 nM | 33.1 nM |
| O=C(NCc1ccn2ccnc2c1)c1ccc(N2CC(CO)OC2=O)s1 (stereo not drawn) [Example 266, 5-[5-(hydroxymethyl)-2-oxo-1,3-oxazolidin-3-yl]-N-(imidazo[1,2-a]pyridin-7-ylmethyl)thiophene-2-carboxamide] | 0.333 nM | 606 nM | 120 nM |
| O=C(NCc1ccn2ccnc2c1)c1ccc(N2C[C@H](O)CC2=O)s1 [Example 267, 5-[(4R)-4-hydroxy-2-oxopyrrolidin-1-yl]-N-(imidazo[1,2-a]pyridin-7-ylmethyl)thiophene-2-carboxamide] | 0.291 nM | 665 nM | 54.3 nM |
| O=C(NCc1ccn2ccnc2c1)c1ccc(N2C[C@@H](O)CC2=O)s1 [Example 268, 5-[(4S)-4-hydroxy-2-oxopyrrolidin-1-yl]-N-(imidazo[1,2-a]pyridin-7-ylmethyl)thiophene-2-carboxamide] | 0.169 nM | 5540 nM | 755 nM |
| COCCn1cc(-c2ccc(C(=O)NCc3ccn4ccnc4c3)s2)cn1 [Example 269, N-(imidazo[1,2-a]pyridin-7-ylmethyl)-5-[1-(2-methoxyethyl)-1H-pyrazol-4-yl]thiophene-2-carboxamide] | 0.169 nM | 15.1 nM | 41.2 nM |
| O=C(NCCCCC1CCN(C(=O)c2ccccc2)CC1)Nc1ccn2ccnc2c1 [Example 270, 1-[4-(1-benzoylpiperidin-4-yl)butyl]-3-imidazo[1,2-a]pyridin-7-ylurea] | 0.991 nM | 973 nM | 60.9 nM |
| CS(=O)(=O)N1CCC(c2ccc(C(=O)NCc3ccn4ccnc4c3)s2)CC1 [Example 271, N-(imidazo[1,2-a]pyridin-7-ylmethyl)-5-[1-(methylsulfonyl)piperidin-4-yl]thiophene-2-carboxamide] | 0.169 nM | 2.71 nM | 51.7 nM |
| CCc1c(-c2ccc(C(=O)NCc3ccn4ccnc4c3)s2)cnn1CC1CCCCC1 [Example 272, 5-[1-(cyclohexylmethyl)-5-ethyl-1H-pyrazol-4-yl]-N-(imidazo[1,2-a]pyridin-7-ylmethyl)thiophene-2-carboxamide] | 0.417 nM | 15.6 nM | 27.2 nM |
| COC1(Cn2ncc(-c3ccc(C(=O)NCc4ccn5ccnc5c4)s3)c2C)CCCC(C)(C)C1 (stereo not drawn) [Example 273, N-(imidazo[1,2-a]pyridin-7-ylmethyl)-5-{1-[(1-methoxy-3,3-dimethylcyclohexyl)methyl]-5-methyl-1H-pyrazol-4-yl}thiophene-2-carboxamide] | 0.555 nM | 2.35 nM | 49.3 nM |
| CC(C)CCC(=O)Nc1ccc(NC(=O)NCc2ccc3nccn3c2)cc1 [Example 274, N-(4-{[(imidazo[1,2-a]pyridin-6-ylmethyl)carbamoyl]amino}phenyl)-4-methylpentanamide] | 0.196 nM | 10.4 nM | 17.8 nM |
| O=C(CCC1CCCC1)Nc1ccc(NC(=O)NCc2ccc3nccn3c2)cc1 [Example 275, 3-cyclopentyl-N-(4-{[(imidazo[1,2-a]pyridin-6-ylmethyl)carbamoyl]amino}phenyl)propanamide] | 0.43 nM | 23.9 nM | 12.3 nM |
| CC(C)OCC(=O)Nc1ccc(NC(=O)NCc2ccc3nccn3c2)cc1 [Example 276, N-(4-{[(imidazo[1,2-a]pyridin-6-ylmethyl)carbamoyl]amino}phenyl)-2-(propan-2-yloxy)acetamide] | 0.468 nM | 38.1 nM | 107 nM |
